Values quoted from earlier work as cited in patent publication US11103503B2, “Pharmaceutical compositions of Lurasidone” (SLAYBACK PHARMA LLC, priority 2019, dated 2021).

Tests used:
[1] = fed state

solubility in water: very slightly soluble
administered dose absorbed [1]: 9-19%
SMILES: O=C1[C@@H]2[C@H]3CC[C@H](C3)[C@@H]2C(=O)N1C[C@@H]1CCCC[C@H]1CN1CCN(c2nsc3ccccc23)CC1 [Lurasidone, N-4-4-(1,2-benzisothiazol-3-yl)-1-piperazinyl-(2R,3R)-2,3-tetramethylene-butyl-(1R,2S,3R,4'S)-2,3-bicyclo[2.2.1]heptanedicarboxyimide]
